Data published in US8148375B2, “(Cyclopropylphenyl)phenyloxamides, method for the production thereof, and use of same as a medicament” (Sanofi-Aventis, priority 2007, dated 2012).

Target: T1, GPCR GPR40 (Homo sapiens, UniProt O14842)
T1 construct: expressed in transfected cells; host or cells: HEK293
Assay: In-vitro FLIPR assay with recombinant cells which express the GPCR GPR40
Assay type: cell-based
Conditions: agonist-induced intracellular Ca2+ change in recombinant HEK293 cells expressing GPR40; relative to 10 μM linoleic acid = 100%
Experimental: In-vitro FLIPR Assay with Recombinant Cells which Express the GPCR GPR40
Function-testing assays were carried out by means of the FLIPR technique (“fluorescence imaging plate reader”, Molecular Devices Corp.). For this purpose, agonist-induced alterations in the intracellular concentration of Ca^2+ in recombinant HEK293 cells which express the GPCR GPR40 were determined.
For the investigations, cells were seeded in 96-well microtiter plates (60 000 cells/well) and left to grow overnight. The medium was removed and the cells were incubated in buffer which contained the fluorescent dye Fluo-4. After this loading with dye, the cells were washed, test substance was added and alterations in the intracellular Ca^2+ concentration were measured in the FLIPR instrument. Results have been depicted as percentage alteration relative to the control (0%: no test substance added; 100%: 10 μM reference agonist linoleic acid added) used to calculate dose/activity plots and EC50 values were determined.

T1 sequence (O14842 whole entry): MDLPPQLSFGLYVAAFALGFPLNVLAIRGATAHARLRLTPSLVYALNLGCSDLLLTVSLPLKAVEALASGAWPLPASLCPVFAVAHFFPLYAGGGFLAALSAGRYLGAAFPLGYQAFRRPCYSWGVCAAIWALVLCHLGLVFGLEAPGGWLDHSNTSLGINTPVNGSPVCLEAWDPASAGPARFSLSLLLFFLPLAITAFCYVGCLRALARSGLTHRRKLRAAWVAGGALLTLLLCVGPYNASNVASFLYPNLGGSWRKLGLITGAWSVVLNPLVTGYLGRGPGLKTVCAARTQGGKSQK

EC50 [nM] | SMILES
700 | O=C(Nc1ccc(C2CC2C(=O)O)cc1)C(=O)Nc1ccc(Cl)cc1C(F)(F)F (centres unmarked) [Example 2]
800 | O=C(Nc1ccc(C2CC2C(=O)O)cc1)C(=O)Nc1cccc(Cl)c1Cl (centres unmarked) [Example 3]
